Data: patent US20240199605A1, “SMALL MOLECULAR INHIBITORS OF NF-kB INDUCING KINASE” (Janssen Pharmaceutica NV, priority 2019, published 2024)

What was measured:
[1] = biological target: recombinant human NF-kappaB-inducing kinase (NIK/MAP3K14) (Homo sapiens (Human), UniProt Q99558); assay: Inhibition of auto-phosphorylation of recombinant human NIK/MAP3K14 (AlphaScreen); assay type: biochemical; settings: NIK auto-phosphorylation, 5 μM ATP, 1 nM NIK, 2 h at 25° C.; average of values
Procedure, shortened: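 AlphaScreen read-out (anti-phospho-IKK Ser176/180 antibody, Protein A acceptor and glutathione donor beads) of NIK auto-phosphorylation. Reaction: 1 nM enzyme, 5 μM ATP, Tris pH 7.5 buffer with Mg2+ and vanadate, 2 h at 25° C., final DMSO 0.7%. IC50 came from a sigmoidal curve fit.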

[2] = tested on: p-IKKα levels in L363 (NIK translocated multiple myeloma) cells; assay: Effect of compounds on p-IKKα levels in L363 cells (AlphaLISA SureFire Ultra); assay type: cell-based, human; settings: Homo sapiens, L-363, 6 h, BAFF stimulated, MG132, 6 h, average of values, read-out: Assay 2 IC50
Procedure, shortened: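 Inhibition of p-IKKα (Ser176/180) read by AlphaLISA after 6 h, 37 °C compound exposure (11-point 1:3 series, 0.3% DMSO) of L363 cells pre-incubated overnight ± 250 ng/ml BAFF and plated ± BAFF ± 10 μM MG132. Normalised to BAFF/MG132/DMSO and unstimulated controls; IC50 by sigmoidal fitting, duplicates.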

recombinant human NF-kappaB-inducing kinase (NIK/MAP3K14), sequence (Q99558 whole entry): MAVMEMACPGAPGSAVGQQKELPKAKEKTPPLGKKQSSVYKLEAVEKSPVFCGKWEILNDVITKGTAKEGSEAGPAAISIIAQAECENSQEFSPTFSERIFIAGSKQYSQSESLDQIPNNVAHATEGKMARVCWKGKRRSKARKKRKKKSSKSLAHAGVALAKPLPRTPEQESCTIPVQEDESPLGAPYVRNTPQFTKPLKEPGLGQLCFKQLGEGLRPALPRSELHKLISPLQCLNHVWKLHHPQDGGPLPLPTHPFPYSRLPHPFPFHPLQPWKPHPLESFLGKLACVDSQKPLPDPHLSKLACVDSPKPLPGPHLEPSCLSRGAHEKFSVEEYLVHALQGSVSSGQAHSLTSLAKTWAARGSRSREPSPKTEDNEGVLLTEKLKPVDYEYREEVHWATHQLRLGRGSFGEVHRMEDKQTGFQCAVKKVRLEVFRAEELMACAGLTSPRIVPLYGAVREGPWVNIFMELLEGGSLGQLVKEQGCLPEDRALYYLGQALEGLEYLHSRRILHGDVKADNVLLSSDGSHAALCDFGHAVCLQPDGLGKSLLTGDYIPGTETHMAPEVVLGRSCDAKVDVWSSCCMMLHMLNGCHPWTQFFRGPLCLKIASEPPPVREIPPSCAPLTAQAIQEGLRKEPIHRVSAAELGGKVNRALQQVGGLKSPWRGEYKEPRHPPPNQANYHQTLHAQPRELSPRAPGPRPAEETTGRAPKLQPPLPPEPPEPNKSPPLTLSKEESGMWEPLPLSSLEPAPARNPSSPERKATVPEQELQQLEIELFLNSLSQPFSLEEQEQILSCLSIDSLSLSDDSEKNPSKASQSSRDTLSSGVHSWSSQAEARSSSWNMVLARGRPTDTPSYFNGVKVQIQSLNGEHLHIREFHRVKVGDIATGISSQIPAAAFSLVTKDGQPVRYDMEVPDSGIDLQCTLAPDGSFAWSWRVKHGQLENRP

| Compound | IC50 [1] | IC50 [2] |
| --- | --- | --- |
| Cc1nc(-c2cccc(C#C[C@@](C)(O)c3nccs3)c2)nc2c(N)nccc12 [Example 48, (R)-4-(3-(8-Amino-4-methylpyrido[3,4-d]pyrimidin-2-yl)phenyl)-2-(thiazol-2-yl)but-3-yn-2-ol] | ≤ 0.5 nM | 16 nM |
| [2H]c1nc(N)c2nc(-c3cccc(C#C[C@]4(O)CCN(C)C4=O)c3)cc(CC)c2n1 [Example 308, (R)-3-((3-(4-Amino-8-ethylpyrido[3,2-d]pyrimidin-6-yl-2-d)phenyl)ethynyl)-3-hydroxy-1-methylpyrrolidin-2-one] | 6.8 nM | 190 nM |
| Cc1ccc(C#C[C@]2(O)CCN(C)C2=O)cc1-c1ccc2ncnc(N)c2n1 [Example 3, (R)-3-[2-[3-(4-Aminopyrido[3,2-d]pyrimidin-6-yl)-4-methyl-phenyl]ethynyl]-3-hydroxy-1-methyl-pyrrolidin-2-one] | 0.7 nM | 28 nM |
| CN1CC[C@](O)(C#Cc2cccc(-c3cc(C4CCOCC4)c4ncnc(N)c4n3)c2)C1=O [Example 256, (S)-3-((3-(4-Amino-8-(tetrahydro-2H-pyran-4-yl)pyrido[3,2-d]pyrimidin-6-yl)phenyl)ethynyl)-3-hydroxy-1-methylpyrrolidin-2-one] | 350 nM | 4150 nM |
| Cc1nccc2ccc(-c3cccc(C#C[C@]4(O)CCN(C)C4=O)c3)nc12 [Example 280, (R)-3-Hydroxy-1-methyl-3-((3-(8-methyl-1,7-naphthyridin-2-yl)phenyl)ethynyl)pyrrolidin-2-one] | 45 nM | 720 nM |
| CC(C)c1ncnc2ccc(-c3cccc(C#C[C@]4(O)CCN(C)C4=O)c3)nc12 [Example 272, (R)-3-Hydroxy-3-((3-(4-isopropylpyrido[3,2-d]pyrimidin-6-yl)phenyl)ethynyl)-1-methylpyrrolidin-2-one] | 59 nM | 1960 nM |
| Cc1nc(-c2cccc(C#C[C@]3(O)CCN(C)C3=O)c2)nc2c(N)ncnc12 [Example 4, (R)-3-((3-(8-Amino-4-methylpyrimido[5,4-d]pyrimidin-2-yl)phenyl)ethynyl)-3-hydroxy-1-methylpyrrolidin-2-one] | 0.8 nM | 5.4 nM |
| CN1CC[C@@](O)(C#Cc2cccc(-c3ncc4c(CN5CCCCC5)cnc(N)c4n3)c2)C1=O [Example 145, (R)-3-[2-[3-[8-Amino-5-(1-piperidylmethyl)pyrido[3,4-d]pyrimidin-2-yl]phenyl]ethynyl]-3-hydroxy-1-methyl-pyrrolidin-2-one] | 3.6 nM | 280 nM |
| CN1CC[C@@](O)(C#Cc2ccc(OC(F)(F)F)c(-c3ncc4ccnc(N)c4n3)c2)C1=O [Example 56, (R)-3-((3-(8-Aminopyrido[3,4-d]pyrimidin-2-yl)-4-(trifluoromethoxy)phenyl)ethynyl)-3-hydroxy-1-methylpyrrolidin-2-one] | 2 nM | 36 nM |
| Cc1cc([C@](C)(O)C#Cc2cccc(-c3ccc4ccnc(N)c4n3)c2)no1 [Example 89, (R)-4-[3-(8-Amino-1,7-naphthyridin-2-yl)phenyl]-2-(5-methylisoxazol-3-yl)but-3-yn-2-ol] | 2.3 nM | 590 nM |
| Cc1nc(N)c2nc(-c3cccc(C#C[C@](C)(O)c4ccccn4)c3)ccc2n1 [Example 191, (S)-4-[3-(4-Amino-2-methyl-pyrido[3,2-d]pyrimidin-6-yl)phenyl]-2-(2-pyridyl)but-3-yn-2-ol] | 15 nM | 2980 nM |
| Cc1cc([C@](C)(O)C#Cc2ccc(C)c(-c3nc4c(N)ncnc4s3)c2)no1 [Example 217, (R)-4-[3-(7-Aminothiazolo[5,4-d]pyrimidin-2-yl)-4-methyl-phenyl]-2-(5-methylisoxazol-3-yl)but-3-yn-2-ol] | 0.9 nM | 77 nM |
| COc1cc(-c2cccc(C#C[C@]3(O)CCN(C)C3=O)c2)cc2c(N)ncnc12 [Example 114, (R)-3-((3-(4-Amino-8-methoxyquinazolin-6-yl)phenyl)ethynyl)-3-hydroxy-1-methylpyrrolidin-2-one] | ≤ 0.5 nM | 120 nM |
